No end group written: not given here.
How the values were obtained:
HEK293T cells = type: in vitro ADME, human
From the text: One of the obstacles in the development of peptide drugs is their low cell permeability. To evaluate if the peptide-based proteasome activators can cross the cell membrane, we synthesized an analog of peptide 7; labeled the ε-amine group of the N-terminal lysine residue with a fluorescent dye, 5/6-carboxytetramethylrhodamine (TAMRA); and used confocal microscopy to detect its entry into cells. […] Therefore, 7 was combined with the HIV-1 TAT protein-derived, membrane-penetrating peptide sequence GRKKRRQRRR (TAT 48–57), separated by the 20S proteasome recognition sequence, LLVY.
TAMRA fluorescent tags were attached to the N-terminal […] group of the lysine residue of compound 7 and the ε-amino group of the corresponding lysine residue in compound TAT-7 before the final deprotection and cleavage of the compounds from the solid support. To achieve the selective attachment of the label to the proper ε-amino group, the Fmoc-Lys(Mtt)-OH was used in this position during peptide elongation. […]
Human embryonic kidney cells (HEK293T, a generous gift of Prof. Grzegorz Węgrzyn, Faculty of Biology, University of Gdańsk, Gdańsk, Poland) were maintained in Dulbecco’s Modified Eagle Medium (DMEM) supplemented with 10% Fetal Bovine Serum (FBS) and penicillin/streptomycin (100 units/mL/100 µg/mL), at 37 °C with 5% CO2. […] The images were merged, and the colocalization of the dye emission was analyzed.

[1] = system: T1, proteasome in HEK293T cells; test: 20S activity in cellulo (TAS3 assay); type: cell-based, human; settings: 10 µM TAS3 in KRBH buffer, 30 min preincubation with compound, 37 °C, linear regression of last 60 min, triplicate, Btz 10 µM
T1 construct: HEK293T cells were seeded in black 96-well plates; endogenous in cells; host or cells: HEK293T
Method: HEK293T cells were seeded in black 96-well plates at 7 × 10^3 cells/well and incubated in DMEM supplemented with 10% FBS and penicillin/streptomycin (100 units/mL/100 µg/mL) at 37 °C with 5% CO2. […] After this time, the cells were treated with the tested peptides/peptidomimetics (1–50 µM in medium). Each sample was prepared in triplicate. The plates were incubated for an additional 30 min. Subsequently, the medium was removed, and 100 µL of 10 µM TAS3 in Krebs-Ringer Bicarbonate (KRBH) buffer, containing the tested modulator, was added to the wells. The fluorescence intensity was monitored every 2 min over a 90 min period at 37 °C using a Tecan Infinite M200 Pro plate reader (Tecan Trading AG, Männedorf, Switzerland) with the excitation and emission wavelengths set at 485 nm and 535 nm, respectively. A linear regression analysis was performed for the last 60 min of the measurement. Any increase or decrease in activity of the 20S was compared to that of the control (cells incubated with TAS3 probe in KRBH buffer) and calculated based on the change in fluorescence units per time [40]. To determine statistical significance, ordinary one-way ANOVA was used.

Row | Molecule | cell permeability / cellular internalization (result in words) (HEK293T cells) | ΔRFU/min (change in fluorescence units per minute, TAS3 probe) [1]
1 | KKKANLQYYA [compound 7] | only slightly cell permeable | –
2 | CC(C)C[C@H](NC(=O)[C@H](Cc1ccccc1)NC(=O)c1cnccn1)B(O)O [Btz, bortezomib] | – | 3.7 RFU/min
